Legend:
[1] = tested on: skin barrier function in SDS-treated mice; assay: Rough skin experiment, short term (11-day) oral administration: transepidermal water loss after SDS treatment; assay type: in vivo, HR-1 hairless mice; conditions: for Δ(delta) TEWL value: difference from the negative control (Dunnett's test, p<5%): 2 hours after the second SDS treatment
Experimental: HR-1 hairless mice (males, seven-week old, Hoshino Laboratory Animals, Inc.) were subjected to the experiment. Each experimental group included seven to eight mice.
In order to examine the effect of the amino acid on the rough skin, 1 mM or 10 mM D-glutamic acid was given with drinking water. The negative control employed was drinking water containing no D-glutamic acid.
An unwoven fabric soaked with a 10% SDS solution was brought into contact for five minutes with one side of the back of a mouse under anesthesia (hereinafter referred to as “SDS treatment”) on the 10th and 11th days after starting the administration of D-glutamic acid. The SDS treatment may be conducted two to five times repetitively until the rough skin becomes evident. In this Example, the SDS treatments on the 10th and 11th days after starting the administration of D-glutamic acid are referred to as the first and the second SDS treatments, respectively. Also in the following transepidermal water loss measurements, an area treated with SDS is referred to as an “SDS treated area,” while an area of the opposite side which was not treated with SDS is referred to as an “SDS non-treated area.”
In order to quantify the rough skin condition, the transepidermal water loss was measured immediately before the first SDS treatment (before SDS treatment) and two hours after the first and the second SDS treatments using a transepidermal water loss meter (Tewameter TM-300, manufactured by Courage+Khazaka electronic GmbH) in accordance with the instruction provided by the manufacturer. Here, the value obtained by subtracting the quantity of the transepidermal water loss of the SDS non-treated area from the quantity of the transepidermal water loss of the SDS treated area was regarded as a “Δ(delta) TEWL value.”
The error bars for relevant experimental conditions are the standard deviations of the measured values of the results of the experiments seven to eight times under identical conditions. The asterisk (*) indicates p<5% by Dunnett's test.

[2] = tested on: skin barrier function in SDS-treated mice; assay: Rough skin experiment, long term (28-day) oral administration: transepidermal water loss after SDS treatment; assay type: in vivo, HR-1 hairless mice; conditions: 10 mM in drinking water, two hours after the second SDS treatment (28th day); for Δ(delta) TEWL value: negative control 2.4
Experimental: The administration of the amino acid, the rough skin experiments and the quantification of the transepidermal water loss were conducted similarly to Example 1 using the HR-1 hairless mice described above. The amino acid employed was 10 mM L- or D-glutamic acid or L- or D-glutamine. The negative control employed was drinking water containing no amino acid. The SDS treatment was conducted on the 27th and 28th days after starting the administration of the amino acid. In this Example, the SDS treatments on the 27th and 28th days after starting the administration of the amino acid described above are referred to as the first and the second SDS treatments, respectively. The quantification of the transepidermal water loss was conducted two hours after the second SDS treatment.
The error bars for relevant experimental conditions are the standard deviations of the measured values of the results of the experiments repeated five times under identical conditions. The asterisk (*) indicates p<5% by Dunnett's test.

SMILES: N[C@H](CCC(=O)O)C(=O)O [D-glutamic acid]
- Δ(delta) TEWL value: difference from the negative control (Dunnett's test, p<5%) ([1]; 1 mM in drinking water): significant difference
- Δ(delta) TEWL value ([1]; 1 mM in drinking water, immediately before the first SDS treatment (10th day), negative control 0.7): 0.4 g/m^2/h
- Δ(delta) TEWL value ([1]; 1 mM in drinking water, two hours after the first SDS treatment (10th day), negative control 2.2): 1.5 g/m^2/h
- Δ(delta) TEWL value ([1]; 1 mM in drinking water, two hours after the second SDS treatment (11th day), negative control 7.0): 3.2 g/m^2/h
- Δ(delta) TEWL value: difference from the negative control (Dunnett's test, p<5%) ([1]; 10 mM in drinking water): significant difference
- Δ(delta) TEWL value ([1]; 10 mM in drinking water, immediately before the first SDS treatment (10th day), negative control 0.7): 0.1 g/m^2/h
- Δ(delta) TEWL value ([1]; 10 mM in drinking water, two hours after the first SDS treatment (10th day), negative control 2.2): 1.2 g/m^2/h
- Δ(delta) TEWL value ([1]; 10 mM in drinking water, two hours after the second SDS treatment (11th day), negative control 7.0): 3.8 g/m^2/h
- Δ(delta) TEWL value: difference from the negative control (Dunnett's test, p<5%) [2]: significant difference
- Δ(delta) TEWL value [2]: −0.9 g/m^2/h

SMILES: NC(=O)CC[C@H](N)C(=O)O [L-glutamine]
- Δ(delta) TEWL value: difference from the negative control (Dunnett's test, p<5%) [2]: no significant difference
- Δ(delta) TEWL value [2]: 2.3 g/m^2/h

SMILES: NC(=O)CC[C@@H](N)C(=O)O [D-glutamine]
- Δ(delta) TEWL value: difference from the negative control (Dunnett's test, p<5%) [2]: no significant difference
- Δ(delta) TEWL value [2]: 3.3 g/m^2/h

SMILES: N[C@@H](CCC(=O)O)C(=O)O [L-glutamic acid]
- Δ(delta) TEWL value: difference from the negative control (Dunnett's test, p<5%) [2]: no significant difference
- Δ(delta) TEWL value [2]: 1.1 g/m^2/h

Reference: patent US20120165408A1, “ORAL COMPOSITION FOR ALLEVIATING ROUGH SKIN” (Shiseido Company, Ltd., priority 2009, published 2012)
